From patent publication US9187471B2, “Pyrido [4,3-b] indole and pyrido [3,4-b] indole derivatives and methods of use” (Medivation Technologies, Inc., priority 2010, dated 2015) come the findings set out here.

Assay [1] deals with T1, human recombinant serotonin (5-Hydroxytryptamine) 5-HT7 receptor (Homo sapiens, UniProt P34969).
T1 construct: expressed in transfected cells; host or cells: CHO
Nature of the assay: Serotonin 5-HT7 radioligand binding ([3H]LSD). Conditions: compound at 0.1 μM; read-out: Inhibition of ligand binding, Serotonin 5-HT7 (percent inhibition of specific binding). The procedure:
Lysergic acid diethylamide (LSD) for 120 min. at 25° C. […] Receptor proteins were filtered and washed, the filters were then counted to determine [^3H]LSD specifically bound.

Assay [2] addresses T2, human recombinant dopamine D2L receptor (Homo sapiens, UniProt P14416).
T2 construct: expressed in transfected cells; host or cells: CHO
As to the kind of experiment: Dopamine D2L radioligand binding ([3H]Spiperone). Conditions: 0.16 nM [3H]Spiperone; for inhibition at 1 µM: read-out: Dopamine D2L (1 μM), percent inhibition of specific binding, compound at 1 μM; for inhibition at 0.1 µM: read-out: Dopamine D2L (0.1 μM), percent inhibition of specific binding, compound at 0.1 μM. The procedure: Non-specific binding was estimated in the presence of 10 μM Haloperidol. Receptor proteins were filtered and washed, the filters were then counted to determine [^3H]Spiperone specifically bound.

Assay [3] concerns the target T3, human recombinant adrenergic α2C receptor (Homo sapiens, UniProt P18825).
T3 construct: expressed in transfected cells; host or cells: insect Sf9 cells
T3 sequence (P18825 1-462): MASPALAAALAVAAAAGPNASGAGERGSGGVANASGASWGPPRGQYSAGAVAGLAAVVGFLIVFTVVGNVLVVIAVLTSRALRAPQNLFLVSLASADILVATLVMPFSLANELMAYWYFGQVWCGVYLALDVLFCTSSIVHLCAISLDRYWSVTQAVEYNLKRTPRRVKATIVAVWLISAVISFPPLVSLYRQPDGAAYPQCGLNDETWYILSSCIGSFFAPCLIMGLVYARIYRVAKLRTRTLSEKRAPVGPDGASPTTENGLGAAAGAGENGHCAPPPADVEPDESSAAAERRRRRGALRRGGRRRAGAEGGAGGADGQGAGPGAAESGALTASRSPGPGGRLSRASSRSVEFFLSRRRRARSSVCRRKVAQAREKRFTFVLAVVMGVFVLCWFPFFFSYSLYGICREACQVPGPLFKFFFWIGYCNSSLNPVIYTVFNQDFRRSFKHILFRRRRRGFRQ
As to the kind of experiment: Adrenergic α2C radioligand binding ([3H]MK-912). Conditions: read-out: Adrenergic (0.1 μM) a2C, percent inhibition of specific binding; compound at 0.1 μM; 1 nM [3H]MK-912. The method, boiled down: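 Membranes from Sf9 cells expressing the human receptor, in 50 mM Tris-HCl pH 7.4 with 12.5 mM MgCl2 and 2 mM EDTA, incubated with compound and 1 nM [3H]MK-912 for 60 min at 25 °C. Non-specific binding defined with 10 μM WB-4101. Filter-bound radioactivity counted; percent inhibition of specific binding reported.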

T2 sequence (P14416 whole entry): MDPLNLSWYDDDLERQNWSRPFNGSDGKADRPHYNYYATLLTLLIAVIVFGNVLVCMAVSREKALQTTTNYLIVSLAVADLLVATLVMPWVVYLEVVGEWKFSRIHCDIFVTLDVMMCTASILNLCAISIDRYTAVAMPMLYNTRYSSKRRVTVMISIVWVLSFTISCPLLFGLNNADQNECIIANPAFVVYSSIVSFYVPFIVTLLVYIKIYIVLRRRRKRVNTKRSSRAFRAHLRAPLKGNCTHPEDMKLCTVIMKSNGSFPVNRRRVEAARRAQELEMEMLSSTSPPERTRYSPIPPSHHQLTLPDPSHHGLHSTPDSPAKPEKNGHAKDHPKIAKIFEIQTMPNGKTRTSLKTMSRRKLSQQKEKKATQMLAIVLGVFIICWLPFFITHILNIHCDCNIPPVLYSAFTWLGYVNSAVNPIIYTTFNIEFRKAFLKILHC
T1 sequence (P34969 whole entry): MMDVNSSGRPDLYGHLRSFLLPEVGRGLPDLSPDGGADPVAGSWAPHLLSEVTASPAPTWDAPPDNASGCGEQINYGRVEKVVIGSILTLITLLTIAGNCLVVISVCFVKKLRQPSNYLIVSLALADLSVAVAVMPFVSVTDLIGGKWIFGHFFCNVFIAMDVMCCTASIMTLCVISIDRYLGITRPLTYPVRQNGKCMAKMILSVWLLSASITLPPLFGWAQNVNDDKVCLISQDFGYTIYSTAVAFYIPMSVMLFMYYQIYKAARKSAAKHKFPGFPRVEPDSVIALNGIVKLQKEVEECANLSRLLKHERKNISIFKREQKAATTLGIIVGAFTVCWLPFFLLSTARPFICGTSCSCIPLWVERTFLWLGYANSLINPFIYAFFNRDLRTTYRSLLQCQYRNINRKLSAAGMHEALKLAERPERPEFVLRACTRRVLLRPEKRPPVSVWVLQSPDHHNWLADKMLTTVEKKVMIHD

The inhibition is the change of the read-out against control, counted positive when it falls. For the compound `Cc1ccc2c(c1)c1c(n2-c2ccc(-c3c(C)noc3C)cn2)CCN(C)C1` [Compound No. 137, 4-(6-(2,8-dimethyl-3,4-dihydro-1H-pyrido[4,3-b]indol-5(2H)-yl)pyridin-3-yl)-3,5-dimethylisoxazole], the inhibition at 0.1 µM is 40% in assay [1] and -1% in assay [3]. Further, the inhibition at 1 µM in assay [2] turned out to be 6%.

Regarding `CNC(=O)c1ccc(-c2ccccc2-n2c3c(c4cc(C)ccc42)CN(C)CC3)cc1` [Compound No. 72, 2′-(2,8-dimethyl-3,4-dihydro-1H-pyrido[4,3-b]indol-5(2H)-yl)-N-methylbiphenyl-4-carboxamide], the inhibition at 0.1 µM was determined as 30% in assay [1] and 1% in assay [3]. For the same compound, the inhibition at 1 µM in assay [2] came out at 16%.

Take `Cc1ccc2c(c1)c1c(n2-c2cscc2-c2cnc(N(C)C)nc2)CCN(C)C1` [Compound 40]: the inhibition at 0.1 µM in assay [1] is 49%; in assay [3], -17%. Moreover, the inhibition at 1 µM in assay [2] stood at 7%.

For `CC(=O)Nc1ccc(-c2ccccc2-n2c3c(c4cc(C)ccc42)CN(C)CC3)cn1` [Compound No. 83, N-(5-(2-(2,8-dimethyl-3,4-dihydro-1H-pyrido[4,3-b]indol-5(2H)-yl)phenyl)pyridin-2-yl)acetamide], the inhibition at 0.1 µM in assay [1] is 15%; in assay [3], -5%. For the same compound, the inhibition at 1 µM in assay [2] is 15%.

In the case of `Cc1ccc2c(c1)c1c(n2-c2cccc(-c3ccc(S(C)(=O)=O)cc3)c2)CCN(C)C1` [Compound No. 131, 2,8-dimethyl-5-(4′-(methylsulfonyl)biphenyl-3-yl)-2,3,4,5-tetrahydro-1H-pyrido[4,3-b]indole], the results for the inhibition at 0.1 µM in assay [1] and in assay [3] were 2% and 13%, respectively. Also, the inhibition at 1 µM in assay [2] was found to be 4%.

`Cc1ccc2c(c1)c1c(n2-c2cscc2-c2cc3ccccc3s2)CCN(C)C1` [Compound No. 151]: the inhibition at 0.1 µM was 90% in assay [1], 1% in assay [2] and 52% in assay [3].

With `Cc1ccc2c(c1)c1c(n2-c2cscc2-c2ccnn2C)CCN(C)C1` [Compound No. 150], the inhibition at 0.1 µM in assay [1] was 88%; in assay [2], 5%; in assay [3], 10%.

As for `Cc1ccc2c(c1)c1c(n2-c2cccc(-c3ccc4c(ccn4C)c3)c2)CCN(C)C1` [Compound 53, 2,8-dimethyl-5-(3-(1-methyl-1H-indol-5-yl)phenyl)-2,3,4,5-tetrahydro-1H-pyrido[4,3-b]indole], the inhibition at 0.1 µM in assay [1] stood at 4%; in assay [3] it was 7%. The inhibition at 1 µM in assay [2] came out at 13%.

In the case of `Cc1ccc2c(c1)c1c(n2-c2cccc(-c3ccc(C)s3)c2)CCN(C)C1` [Compound No. 64, 2,8-dimethyl-5-(3-(5-methylthiophen-2-yl)phenyl)-2,3,4,5-tetrahydro-1H-pyrido[4,3-b]indole], the inhibition at 0.1 µM was determined as 31% in assay [1] and 12% in assay [3]. In assay [2], the inhibition at 1 µM amounted to 24%.

For the compound `CNC(=O)c1cccc(-c2cscc2-n2c3c(c4cc(C)ccc42)CN(C)CC3)c1` [Compound No. 154], the inhibition at 0.1 µM in assay [1] was determined as 73%; in assay [2], 1%; in assay [3], 3%.

`Cc1ccc2c(c1)c1c(n2-c2cccc(-c3cn[nH]c3)c2)CCN(C)C1` [Compound No. 70, 5-(3-(1H-pyrazol-4-yl)phenyl)-2,8-dimethyl-2,3,4,5-tetrahydro-1H-pyrido[4,3-b]indole]: the inhibition at 0.1 µM in assay [1] was 50%; in assay [3] it was 8%. Further, in assay [2], the inhibition at 1 µM was found to be 15%.

On to `Cc1ccc2c(c1)c1c(n2-c2ccccc2-c2c(C)noc2C)CCN(C)C1` [Compound No. 82, 4-(2-(2,8-dimethyl-3,4-dihydro-1H-pyrido[4,3-b]indol-5(2H)-yl)phenyl)-3,5-dimethylisoxazole], for which the inhibition at 0.1 µM in assay [1] was determined as 24%; in assay [3] it was 7%. The inhibition at 1 µM in assay [2] turned out to be 9%.

Consider `Cc1ccc2c(c1)c1c(n2-c2cscc2-c2cccc3[nH]ncc23)CCN(C)C1` [Compound 41], for which the inhibition at 0.1 µM stood at 96% in assay [1] and 55% in assay [3]. Further, the inhibition at 1 µM in assay [2] is 24%.

As for `Cc1ccc2c(c1)c1c(n2-c2ccc(-c3ccc4c(ccn4C)c3)cn2)CCN(C)C1` [Compound No. 136, 2,8-dimethyl-5-(5-(1-methyl-1H-indol-5-yl)pyridin-2-yl)-2,3,4,5-tetrahydro-1H-pyrido[4,3-b]indole], the inhibition at 0.1 µM is 26% in assay [1] and 24% in assay [3]. Further, the inhibition at 1 µM in assay [2] came out at 15%.

Take `CNC(=O)c1ccc(-c2cscc2-n2c3c(c4cc(C)ccc42)CN(C)CC3)cc1` [Compound No. 155]: the inhibition at 0.1 µM is 94% in assay [1], 1% in assay [2] and 0% in assay [3].

In the case of `Cc1ccc2c(c1)c1c(n2-c2cccc(-c3sccc3C)c2)CCN(C)C1` [Compound 43, 2,8-dimethyl-5-(3-(3-methylthiophen-2-yl)phenyl)-2,3,4,5-tetrahydro-1H-pyrido[4,3-b]indole], the inhibition at 0.1 µM in assay [1] was 33%; in assay [3] it was -16%. Besides, the inhibition at 1 µM in assay [2] is 26%.

With `Cc1ccc2c(c1)c1c(n2-c2ccc(-c3ccc(F)nc3)cn2)CCN(C)C1` [Compound No. 142, 5-(6′-fluoro-3,3′-bipyridin-6-yl)-2,8-dimethyl-2,3,4,5-tetrahydro-1H-pyrido[4,3-b]indole], the inhibition at 0.1 µM in assay [1] is 22%; in assay [3], 5%. Also, in assay [2], the inhibition at 1 µM turned out to be 13%.

With `Cc1ccc2c(c1)c1c(n2-c2cscc2-c2ccc(O)nc2)CCN(C)C1` [Compound 49], the figures for the inhibition at 0.1 µM in assay [1] and in assay [3] were 86% and -10%, respectively. For the same compound, in assay [2], the inhibition at 1 µM stood at 1%.

Take `Cc1ccc2c(c1)c1c(n2-c2ccccc2-c2cnc(N(C)C)nc2)CCN(C)C1` [Compound 31]: the inhibition at 0.1 µM is -2% in assay [1] and 12% in assay [3]. The inhibition at 1 µM in assay [2] came to 12%.

For the compound `Cc1ccc2c(c1)c1c(n2-c2ccc(-c3ccc(F)cc3)cn2)CCN(C)C1` [Compound No. 140, 5-(5-(4-fluorophenyl)pyridin-2-yl)-2,8-dimethyl-2,3,4,5-tetrahydro-1H-pyrido[4,3-b]indole], the inhibition at 0.1 µM came out at 41% in assay [1] and 53% in assay [3]. Further, the inhibition at 1 µM in assay [2] was -4%.

Take `Cc1ccc2c(c1)c1c(n2-c2ccccc2-c2ccc(C)s2)CCN(C)C1` [Compound No. 81, 2,8-dimethyl-5-(2-(5-methylthiophen-2-yl)phenyl)-2,3,4,5-tetrahydro-1H-pyrido[4,3-b]indole]: the inhibition at 0.1 µM came out at 72% in assay [1] and 41% in assay [3]. For the same compound, in assay [2], the inhibition at 1 µM is 19%.

As to `CNC(=O)c1ccc(-c2cscc2-n2c3c(c4cc(C)ccc42)CN(C)CC3)cn1` [Compound No. 73], the inhibition at 0.1 µM was 66% in assay [1] and 2% in assay [3]. Besides, the inhibition at 1 µM in assay [2] is 21%.

With `Cc1ccc2c(c1)c1c(n2-c2ccc(-c3ccc(C)nc3)cn2)CCN(C)C1` [Compound No. 156, 2,8-dimethyl-5-(6′-methyl-3,3′-bipyridin-6-yl)-2,3,4,5-tetrahydro-1H-pyrido[4,3-b]indole], the figures for the inhibition at 0.1 µM in assay [1], in assay [2] and in assay [3] were 28%, -7% and -13%, respectively.

For `Cc1ccc2c(c1)c1c(n2-c2ccc(-c3ccc(S(N)(=O)=O)cc3)cn2)CCN(C)C1` [Compound No. 145, 4-(6-(2,8-dimethyl-3,4-dihydro-1H-pyrido[4,3-b]indol-5(2H)-yl)pyridin-3-yl)benzenesulfonamide], the inhibition at 0.1 µM in assay [1] is 32%; in assay [3], 6%. Besides, the inhibition at 1 µM in assay [2] was 8%.

Turning to `Cc1ccc2c(c1)c1c(n2-c2cccc(-c3cnn(C)c3)c2)CCN(C)C1` [Compound 46, 2,8-dimethyl-5-(3-(1-methyl-1H-pyrazol-4-yl)phenyl)-2,3,4,5-tetrahydro-1H-pyrido[4,3-b]indole], the inhibition at 0.1 µM in assay [1] worked out at 51%; in assay [3], 6%. In assay [2], the inhibition at 1 µM stood at 20%.

Regarding `Cc1ccc2c(c1)c1c(n2-c2cccc(-c3ccc(S(N)(=O)=O)cc3)c2)CCN(C)C1` [Compound No. 158, 3′-(2,8-dimethyl-3,4-dihydro-1H-pyrido[4,3-b]indol-5(2H)-yl)biphenyl-4-sulfonamide], the results for the inhibition at 0.1 µM in assay [1], in assay [2] and in assay [3] were 26%, 1% and 0%, respectively.
